According to ChEMBL document CHEMBL3272098, “Reactions of 2-acyloxyisobutyryl halides with nucleosides. 7. Synthesis and biological evaluation of some 2,2'-anhydro-1(3',5'-di-O-acyl-beta-D-arabinofuranosyl)cytosine hydrochlorides” (J Med Chem, 1976):
The source made the active and inactive calls. The calls are words filed in the database; no cut-off is given here.

Legend:
[1] = tested on: HeLa; experiment: Cytotoxicity against human HeLa cells after 48 hrs by Coulter counting analysis; assay type: functional; conditions: read-out: ED50 (the source's name)
[2] = tested on: Vaccinia virus; experiment: Antiviral activity against Vaccinia virus IHD infected in African green monkey BGM cells after 6 days by plaque reduction assay; assay type: functional; conditions: Orthopoxvirus vaccinia, 144 h, read-out: ED50 (the source's name)
[3] = tested on: Herpesviridae sp.; experiment: Antiviral activity against Herpes simplex virus HF infected in African green monkey BGM cells after 6 days by plaque reduction assay; assay type: functional; conditions: 144 h, read-out: ED50 (the source's name)
[4] = tested on: BGM; experiment: Antiviral activity against Poliovirus type 1 Mahoney infected in African green monkey BGM cells after 5 days by pulp disk diffusion assay; assay type: functional, cell-based; conditions: Human poliovirus 1 Mahoney
[5] = tested on: Measles morbillivirus; experiment: Antiviral activity against Measles virus infected in African green monkey BGM cells after 5 days by pulp disk diffusion assay; assay type: functional, organism-based
[6] = tested on: unidentified influenza virus; experiment: Antiviral activity against Influenza virus Ao/WNS infected in monkey LLC-MK2 cells after 5 days by pulp disk diffusion assay; assay type: functional, organism-based
[7] = tested on: L1210; experiment: Antitumor activity against mouse L1210 cells allografted in BDF1 mouse assessed as increase in life span at 50 mg/kg, ip administered 24 hrs post-implantation measured up to 30 days relative to control; assay type: functional; conditions: route intraperitoneal
[8] = tested on: Mus musculus; experiment: Toxicity in BDF1 mouse allografted with mouse L1210 cells assessed as reduction in average life span at 200 mg/kg, ip administered 24 hrs post-implantation measured up to 30 days relative to control; assay type: organism-based; set-up: dose 200 mg/kg, route intraperitoneal; scale not given: the % may be the effect or the level left; conditions: in vivo
[9] = tested on: L1210; experiment: Antitumor activity against mouse L1210 cells allografted in BDF1 mouse assessed as survival at 50 mg/kg, ip administered 24 hrs post-implantation after 30 days; assay type: functional, organism-based; set-up: dose 50 mg/kg
[10] = tested on: Mus musculus; experiment: Toxicity in BDF1 mouse allografted with mouse L1210 cells assessed as survival at 200 mg/kg, ip administered 24 hrs post-implantation after 30 days; assay type: organism-based; set-up: dose 200 mg/kg, route intraperitoneal; conditions: in vivo, 720 h
[11] = tested on: Mus musculus; experiment: Toxicity in BDF1 mouse allografted with mouse L1210 cells at 50 mg/kg, ip administered 24 hrs post-implantation measured up to 30 days; assay type: organism-based; set-up: dose 50 mg/kg, route intraperitoneal; conditions: in vivo
[12] = tested on: L1210; experiment: Antitumor activity against mouse L1210 cells allografted in po dosed BDF1 mouse administered 24 hrs post-implantation; assay type: functional, organism-based
[13] = tested on: L1210; experiment: Antitumor activity against mouse L1210 cells allografted in BDF1 mouse assessed as increase in life span at 200 mg/kg, ip administered 24 hrs post-implantation measured up to 30 days relative to control; assay type: functional; conditions: route intraperitoneal
[14] = tested on: L1210; experiment: Antitumor activity against mouse L1210 cells allografted in BDF1 mouse assessed as increase in life span at 500 mg/kg, ip administered 24 hrs post-implantation measured up to 30 days relative to control; assay type: functional; conditions: route intraperitoneal
[15] = tested on: L1210; experiment: Antitumor activity against mouse L1210 cells allografted in BDF1 mouse assessed as increase in life span at 1000 mg/kg, ip administered 24 hrs post-implantation measured up to 30 days relative to control; assay type: functional; conditions: route intraperitoneal
[16] = tested on: L1210; experiment: Antitumor activity against mouse L1210 cells allografted in BDF1 mouse assessed as survival at 500 mg/kg, ip administered 24 hrs post-implantation after 30 days; assay type: functional, organism-based; set-up: dose 500 mg/kg
[17] = tested on: L1210; experiment: Antitumor activity against mouse L1210 cells allografted in BDF1 mouse assessed as survival at 1000 mg/kg, ip administered 24 hrs post-implantation after 30 days; assay type: functional, organism-based; set-up: dose 1000 mg/kg
[18] = tested on: Mus musculus; experiment: Toxicity in BDF1 mouse allografted with mouse L1210 cells at 50 to 1000 mg/kg, ip administered 24 hrs post-implantation measured up to 30 days; assay type: organism-based; set-up: dose 50-1000 mg/kg, route intraperitoneal; conditions: in vivo
[19] = tested on: Mus musculus; experiment: Toxicity in BDF1 mouse allografted with mouse L1210 cells assessed as reduction in average life span at 500 mg/kg, ip administered 24 hrs post-implantation measured up to 30 days relative to control; assay type: organism-based; set-up: dose 500 mg/kg, route intraperitoneal; scale not given: the % may be the effect or the level left; conditions: in vivo
[20] = tested on: Mus musculus; experiment: Toxicity in BDF1 mouse allografted with mouse L1210 cells assessed as reduction in average life span at 1000 mg/kg, ip administered 24 hrs post-implantation measured up to 30 days relative to control; assay type: organism-based; set-up: dose 1000 mg/kg, route intraperitoneal; scale not given: the % may be the effect or the level left; conditions: in vivo
[21] = tested on: L1210; experiment: Antitumor activity against mouse L1210 cells allografted in BDF1 mouse assessed as survival at 200 mg/kg, ip administered 24 hrs post-implantation after 30 days; assay type: functional, organism-based; set-up: dose 200 mg/kg
[22] = tested on: Mus musculus; experiment: Toxicity in BDF1 mouse allografted with mouse L1210 cells assessed as survival at 500 mg/kg, ip administered 24 hrs post-implantation after 30 days; assay type: organism-based; set-up: dose 500 mg/kg, route intraperitoneal; conditions: in vivo, 720 h
[23] = tested on: Mus musculus; experiment: Toxicity in BDF1 mouse allografted with mouse L1210 cells assessed as survival at 1000 mg/kg, ip administered 24 hrs post-implantation after 30 days; assay type: organism-based; set-up: dose 1000 mg/kg, route intraperitoneal; conditions: in vivo, 720 h

SMILES | EC50 [1] | EC50 [2] | EC50 [3] | Activity [4] | Activity [5] | Activity [6] | ILS at 50 mg/kg [7] | Activity [8] | Activity [9] | Activity [10] | Activity [11] | Activity [12] | ILS at 200 mg/kg [13] | Activity [19] | Activity [20] | Activity [22] | Activity [23] | also measured
C/C=C/C=C/C(=O)OC[C@H]1O[C@@H]2[C@@H](Oc3nc(=N)ccn32)[C@@H]1OC(=O)/C=C/C=C/C.Cl | 0.1 µg/mL | 5.8 µM | > 10 µM | inactive | inactive | inactive | 1% | 100% | inactive | Toxic | Non-toxic | inactive | – | – | – | – | – | –
CCCCCCCC/C=C\CCCCCCCCCCCC(=O)OC[C@H]1O[C@@H]2[C@@H](Oc3nc(=N)ccn32)[C@@H]1OC(=O)CCCCCCCCCCC/C=C\CCCCCCCC.Cl | 4 µg/mL | > 30 µM | > 30 µM | inactive | inactive | inactive | > 202% | – | – | – | – | inactive | > 267% | – | – | – | – | ILS at 500 mg/kg [14]: > 257%; ILS at 1000 mg/kg [15]: > 257%; Activity [16]: Active; Activity [17]: Active; Activity [18]: Non-toxic
CCCCCCCC/C=C\CCCCCCCC(=O)OC[C@H]1O[C@@H]2[C@@H](Oc3nc(=N)ccn32)[C@@H]1OC(=O)CCCCCCC/C=C\CCCCCCCC.Cl | 0.3 µg/mL | 3.2 µM | 8.5 µM | inactive | inactive | inactive | > 141% | – | – | – | – | inactive | > 257% | 23% | 31% | Toxic | Toxic | Activity [21]: Active
CCCCCC(=O)OC[C@H]1O[C@@H]2[C@@H](Oc3nc(=N)ccn32)[C@@H]1OC(=O)CCCCC.Cl | 0.11 µg/mL | 0.27 µM | 1 µM | inactive | inactive | inactive | 26% | 61% | inactive | Toxic | – | inactive | – | 86% | 100% | Toxic | Toxic | –
C=CCCCCCCCCC(=O)OC[C@H]1O[C@@H]2[C@@H](Oc3nc(=N)ccn32)[C@@H]1OC(=O)CCCCCCCCC=C.Cl | 0.1 µg/mL | 0.44 µM | 0.78 µM | inactive | inactive | inactive | 24% | 74% | inactive | Toxic | Non-toxic | inactive | – | – | – | – | – | –
